Results reported in US10961200B2, “Small molecule inhibitors of lactate dehydrogenase and methods of use thereof” (THE UNITED STATES OF AMERICA, AS REPRESENTED BY THE …, priority 2014, dated 2021).
pIC50: −log10 of the molar value.

Assays:
[1] = target: Human LDHA (Homo sapiens (Human), UniProt P00338); assay: human LDHA primary biochemical assay (resazurin/diaphorase coupled, fluorescence); settings: LDHA inhibitory activity, activity level based on IC50 (Table 7)
Text: Test compounds were placed in a Greiner Bio-One (Monroe, N.C.) 1536-well black solid bottom assay plate. 200 millimolar (mM) Tris HCl, pH 7.4, 100 micromolar […] EDTA and 0.01% TWEEN-20™, final concentration, was used as the assay buffer. The LDHA reagent was 2 nanomolar (nM) Human LDHA (Meridian Life Science, Inc., Memphis, Tenn.), final concentration, in assay buffer.

[2] = test system: MiaPaCa2 cells; assay: cell-based HT lactate assay, colorimetric/fluorometric detection (inhibition of lactate production); settings: class symbols, 0 to 3 pluses

Row | Structure (SMILES) | pIC50 [1] | pIC50 ([2]; Homo sapiens, MIA PaCa-2) | pIC50 [2]
1 | N[S+](=O)([O-])c1ccc(Cc2c(-c3ccc(F)c(C#CCCO)c3)nn(-c3nc(C(=O)O)cs3)c2CC2CC2)cc1F [Compound 409] | > 7.00 | 5.00 to 6.00 | 
2 | C#Cc1cc(-c2nn(-c3nc(C(=O)O)cs3)c(CC3CC3)c2Cc2ccc(S(N)(=O)=O)c(F)c2)ccc1F [Compound 410] | > 7.00 |  | > 6.00
3 | N[S+](=O)([O-])c1ccc(Cc2c(-c3ccc(F)c(C#CCC4CCCC4)c3)nn(-c3nc(C(=O)O)cs3)c2CC2CC2)cc1F [Compound 411] | > 7.00 |  | > 6.00
4 | NS(=O)(=O)c1ccc(Cc2c(-c3ccc(F)c(C#CC4(O)CCCC4)c3)nn(-c3nc(C(=O)O)cs3)c2CC2CC2)cc1F [Compound 412] | > 7.00 |  | 5.00 to 6.00
5 | NS(=O)(=O)c1ccc(Cc2c(-c3ccc(F)c(C#CC4(F)COC4)c3)nn(-c3nc(C(=O)O)cs3)c2CC2CC2)cc1F [Compound 414] | > 7.00 |  | 5.00 to 6.00
6 | NS(=O)(=O)c1ccc(Cc2c(-c3ccc(F)c(C#CC4(O)COC4)c3)nn(-c3nc(C(=O)O)cs3)c2CC2CC2)cc1F [Compound 415] | > 7.00 |  | 5.00 to 6.00
7 | CC1(C#Cc2cc(-c3nn(-c4nc(C(=O)O)cs4)c(CC4CC4)c3Cc3ccc(S(N)(=O)=O)c(F)c3)ccc2F)COC1 [Compound 416] | > 7.00 |  | 5.00 to 6.00
8 | N[S+](=O)([O-])c1ccc(Cc2c(-c3ccc(F)c(C#CCN4CCCC4)c3)nn(-c3nc(C(=O)O)cs3)c2CC2CC2)cc1F [Compound 417] | > 7.00 |  | 5.00 to 6.00
9 | NS(=O)(=O)c1ccc(Cc2c(-c3ccc(F)c(C#CC4(O)CCOC4)c3)nn(-c3nc(C(=O)O)cs3)c2CC2CC2)cc1F (centres unmarked) [Compound 418] | > 7.00 |  | 5.00 to 6.00
10 | NS(=O)(=O)c1ccc(Cc2c(-c3ccc(F)c(C#CC4(F)CCOC4)c3)nn(-c3nc(C(=O)O)cs3)c2CC2CC2)cc1F (centres unmarked) [Compound 419] | > 7.00 |  | > 6.00
11 | CC#Cc1cc(-c2nn(-c3nc(C(=O)OCC)cs3)c(CC3CC3)c2Cc2ccc(S(N)(=O)=O)c(F)c2)ccc1F [Compound 420] | 4.24 to 6.00 |  | < 4.24
12 | N[S+](=O)([O-])c1ccc(Cc2c(-c3ccc(F)c(C#CCC4CCCO4)c3)nn(-c3nc(C(=O)O)cs3)c2CC2CC2)cc1F (centres unmarked) [Compound 421] | > 7.00 |  | 5.00 to 6.00
13 | CC#Cc1cc(-c2nn(-c3nc(C(=O)O)cs3)c(CC3CC3)c2Cc2cccc([S+](N)(=O)[O-])c2)ccc1F [Compound 422] | > 7.00 |  | 4.24 to 5.00
14 | NS(=O)(=O)c1ccc(Cc2c(-c3ccc(F)c(C#CC4CCOC4)c3)nn(-c3nc(C(=O)O)cs3)c2CC2CC2)cc1F (centres unmarked) [Compound 423] | > 7.00 |  | > 6.00
15 | CCOC(=O)c1csc(-n2nc(-c3cccc(C#CC4CCCC4)c3)c(Cc3ccc(S(N)(=O)=O)c(F)c3)c2CC2CC2)n1 [Compound 428] | < 4.24 |  | < 4.24
16 | CCOC(=O)c1csc(-n2nc(-c3ccc(F)c(C#CC4CCCC4)c3)c(Cc3ccc([S+](N)(=O)[O-])cc3)c2CC2CC2)n1 [Compound 429] | 4.24 to 6.00 |  | < 4.24
17 | N[S+](=O)([O-])c1ccc(Cc2c(-c3ccc(F)c(C#CC4CCCC4)c3)nn(-c3nc(C(=O)O)cs3)c2CC2CC2)cc1 [Compound 430] | > 7.00 |  | > 6.00
18 | N[S+](=O)([O-])c1ccc(Cc2c(-c3ccc(F)c(C#CC4CCCC4)c3)nn(-c3nc(C(=O)O)cs3)c2C2CC2)cc1F [Compound 431] | > 7.00 |  | > 6.00
19 | N[S+](=O)([O-])c1ccc(Cc2c(-c3cccc(C#CC4CCCC4)c3)nn(-c3nc(C(=O)O)cs3)c2CC2CC2)cc1F [Compound 432] | > 7.00 |  | > 6.00
20 | N[S+](=O)([O-])c1ccc(Cc2c(-c3ccc(F)c(C#CC4CC4)c3)nn(-c3nc(C(=O)O)cs3)c2CC2CC2)cc1 [Compound 433] | > 7.00 |  | > 6.00
21 | CCOC(=O)c1csc(-n2nc(-c3ccc(F)c(C#CC4CCCC4)c3)c(Cc3ccc(S(N)(=O)=O)c(F)c3)c2C2CC2)n1 [Compound 434] | 4.24 to 6.00 |  | < 4.24
22 | CCOC(=O)c1csc(-n2nc(-c3ccc(F)c(C#CC4CC4)c3)c(Cc3ccc(S(N)(=O)=O)cc3)c2CC2CC2)n1 [Compound 435] | 4.24 to 6.00 |  | < 4.24
23 | NS(=O)(=O)c1ccc(Cc2c(-c3ccc(F)c(C#CC4(F)CCCC4)c3)nn(-c3nc(C(=O)O)cs3)c2CC2CC2)cc1F [Compound 436] | > 7.00 |  | > 6.00
24 | NS(=O)(=O)c1ccc(Cc2c(-c3ccc(F)c(C#CCC4CC4)c3)nn(-c3nc(C(=O)O)cs3)c2CC2CC2)cc1F [Compound 437] | > 7.00 |  | > 6.00
25 | N[S+](=O)([O-])c1cccc(Cc2c(-c3ccc(F)c(C#CC4CCCC4)c3)nn(-c3nc(C(=O)O)cs3)c2CC2CC2)c1 [Compound 438] | 6.00 to 7.00 |  | 5.00 to 6.00
26 | N#CC#Cc1cc(-c2nn(-c3nc(C(=O)O)cs3)c(CC3CC3)c2Cc2ccc(S(N)(=O)=O)c(F)c2)ccc1F [Compound 442] | > 7.00 |  | 5.00 to 6.00
27 | NS(=O)(=O)c1ccc(Cc2c(-c3ccc(F)c(C4=CCCC4)c3)nn(-c3nc(C(=O)O)cs3)c2CC2CC2)cc1F [Compound 444] | > 7.00 |  | > 6.00
28 | NS(=O)(=O)c1ccc(Cc2c(-c3ccc(F)c(C#CC4CCC4)c3)nn(-c3nc(C(=O)O)cs3)c2CC2CC2)cc1F [Compound 446] | > 7.00 |  | > 6.00

The next lines start with results.

Row | pIC50 [1] | pIC50 ([2]; Homo sapiens, MIA PaCa-2) | Structure (SMILES) | pIC50 [2]
29 | > 7.00 |  | NS(=O)(=O)c1ccc(Cc2c(-c3ccc(F)c(C#CC(F)F)c3)nn(-c3nc(C(=O)O)cs3)c2CC2CC2)cc1F [Compound 440] | 5.00 to 6.00
30 | > 7.00 | > 6.00 | CC(F)C#Cc1cc(-c2nn(-c3nc(C(=O)O)cs3)c(CC3CC3)c2Cc2ccc([S+](N)(=O)[O-])c(F)c2)ccc1F (centres unmarked) [Compound 443] | 
31 | > 7.00 |  | CC(C)C#Cc1cc(-c2nn(-c3nc(C(=O)O)cs3)c(CC3CC3)c2Cc2ccc([S+](N)(=O)[O-])c(F)c2)ccc1F [Compound 445] | > 6.00
32 | > 7.00 | 5.00 to 6.00 | NS(=O)(=O)c1ccc(Cc2cn(-c3nc(C(=O)O)cs3)nc2-c2ccc(F)c(-c3cccc(F)c3)c2)cc1 [Compound 458, 2-(3-(3′,6-difluoro-[1,1′-biphenyl]-3-yl)-4-(4-sulfamoylbenzyl)-1H-pyrazol-1-yl)thiazole-4-carboxylic acid] | 
33 | > 7.00 | > 6.00 | Cc1ccc(-c2nn(-c3nc(C(=O)O)cs3)c(CC3CC3)c2Cc2ccc(S(N)(=O)=O)cc2)cc1OC1CCCC1 [Compound 467, 2-(3-(3-(cyclopentyloxy)-4-methylphenyl)-5-(cyclopropylmethyl)-4-(4-sulfamoylbenzyl)-1H-pyrazol-1-yl)thiazole-4-carboxylic acid] | 
34 | 6.00 to 7.00 | 5.00 to 6.00 | NS(=O)(=O)c1ccc(Cc2c(-c3cc(OC4CCCC4)ccc3F)nn(-c3nc(C(=O)O)cs3)c2CC2CC2)cc1 [Compound 468, 2-(3-(5-(cyclopentyloxy)-2-fluorophenyl)-5-(cyclopropylmethyl)-4-(4-sulfamoylbenzyl)-1H-pyrazol-1-yl)thiazole-4-carboxylic acid] | 
35 | > 7.00 | 5.00 to 6.00 | NS(=O)(=O)c1ccc(Cc2c(-c3ccc(F)c(OCC4CCCO4)c3)nn(-c3nc(C(=O)O)cs3)c2CC2CC2)cc1F (centres unmarked) [Compound 469, 2-(5-(cyclopropylmethyl)-3-(4-fluoro-3-((tetrahydrofuran-2-yl)methoxy)phenyl)-4-(3-fluoro-4-sulfamoylbenzyl)-1H-pyrazol-1-yl)thiazole-4-carboxylic acid] | 
36 | > 7.00 | 5.00 to 6.00 | NS(=O)(=O)c1ccc(Cc2c(-c3ccc(F)c(OCC4CCOC4)c3)nn(-c3nc(C(=O)O)cs3)c2CC2CC2)cc1F (centres unmarked) [Compound 470, 2-(5-(cyclopropylmethyl)-3-(4-fluoro-3-((tetrahydrofuran-3-yl)methoxy)phenyl)-4-(3-fluoro-4-sulfamoylbenzyl)-1H-pyrazol-1-yl)thiazole-4-carboxylic acid] | 
37 | > 7.00 | > 6.00 | NS(=O)(=O)c1ccc(Cc2c(-c3ccc(F)c(OCc4ccc(C(F)(F)F)o4)c3)nn(-c3nc(C(=O)O)cs3)c2CC2CC2)cc1F [Compound 473, 2-(5-(cyclopropylmethyl)-3-(4-fluoro-3-((5-(trifluoromethyl)furan-2-yl)methoxy)phenyl)-4-(3-fluoro-4-sulfamoylbenzyl)-1H-pyrazol-1-yl)thiazole-4-carboxylic Acid] | 
38 | > 7.00 | 5.00 to 6.00 | COc1cccc(-c2cc(F)cc(-c3nn(-c4nc(C(=O)O)cs4)c(CC4CC4)c3Cc3ccc(S(N)(=O)=O)cc3)c2)c1 [Compound 478, 2-(5-(cyclopropylmethyl)-3-(5-fluoro-3′-methoxy-[1,1′-biphenyl]-3-yl)-4-(4-sulfamoylbenzyl)-1H-pyrazol-1-yl)thiazole-4-carboxylic Acid] | 
39 | > 7.00 | > 6.00 | NS(=O)(=O)c1ccc(Cc2c(-c3cc(F)cc(-c4ccc(F)cc4)c3)nn(-c3nc(C(=O)O)cs3)c2CC2CC2)cc1 [Compound 479, 2-(5-(cyclopropylmethyl)-3-(4′,5-difluoro-[1,1′-biphenyl]-3-yl)-4-(4-sulfamoylbenzyl)-1H-pyrazol-1-yl)thiazole-4-carboxylic Acid] | 
40 | > 7.00 | > 6.00 | NS(=O)(=O)c1ccc(Cc2c(-c3ccc(F)c(OCc4ccccc4)c3)nn(-c3nc(C(=O)O)cs3)c2CC2CC2)cc1 [Compound 480, 2-(3-(3-(benzyloxy)-4-fluorophenyl)-5-(cyclopropylmethyl)-4-(4-sulfamoylbenzyl)-1H-pyrazol-1-yl)thiazole-4-carboxylic Acid] | 
